Experimental data as given in patent publication US9181172B2, “Rhein conjugates, preparation method thereof and their uses in producing medicines for treating diabetic nephrosis, intestinal adhesion and osteoarthritis” (priority 2005, dated 2015).

Assays:
Format in all cases: in vivo
mice [1] = assay: Xylene-induced swelling of auricle in mice; settings: ig 200 mg/kg, 3 days
Method: Fifty male Kunming mice were selected, weighing 18-22 g each, and randomly divided into five groups, namely, model control group, aspirin group, rhein sodium group, rhein glucosamine large dose group and low dose groups. Each group had 10 mice respectively. The mice were administered with medicines by intragastric administration every day, for 0.2 ml/10 g body weight. The mice of the model control group were administered with equal volume of physiological saline, once every day, continuously administration for 3 days. After 60 minutes of the final administration, carried on test according to the method in the literature [Xu Shuyun, Methodology in Pharmacological Experiment (the 3rd version): 911]. The sweeling degree of auricle was calculated and statistical analysis was conducted.

mice [2] = assay: Acetic acid-induced writhing response in mice; settings: ig 200 mg/kg, 12 days
Method: Fifty Kunming mice, half male and half female, weighing 18-22 g each, were selected and randomly divided into five groups, namely, model control group, aspirin group, rhein sodium group, rhein glucosamine large dose group and small dose group, 10 mice for each group. The mice were administered with medicine by intragastric administration every day, 0.2 ml/10 g body weight, once every day, and administered for 12 days in succession. After the final administration of medicines, 30 minutes later, test was carried on according to the methods in the literature [Xu Shuyun, Methodology in Pharmacological Experiment (the 1st version): 882]. The inhibiting rate for writhing response was calculated.

rats [3] = assay: Formation of cotton ball granuloma in rats (Example 59 Test 2)
Method: Rats were randomly divided into five groups (model control group, indomethacin group, rhein glucosamine large dose group and low dose group and rhein sodium group). Each group included 10 rats, and built models according to the method in the literature [Xu Shuyun, Methodology in Pharmacological Experiment (the 3rd version): 918]. The rats were administered by medicines from the day when starting the operation. […] The rats were killed in two weeks, and tests were performed according to the methods in the literature, the net weight of granulation was calculated, and t test was used for the intergroup comparison.

rats [4] = assay: Formation of granuloma in rats (arthritis example, test 4); settings: 10 mg/kg intramuscular, two weeks
Method: Rats were randomly divided into five groups (model control group, indomethacin group, rhein glucosamine large dose group and small dose group and rhein sodium group). Each group has 10 […]. According to the method in the literature [Xu Shuyun, Methodology in Pharmacological Experiment (the 3rd version): 918], the models were built, and the rats were administered with medicines since the day when starting operations. […] Two weeks later, the rats were killed and test was carried on according to the method in the literature. The net weight of granulation was calculated, and t test was used for the intergroup comparison.

rats [5] = assay: Carrageenan-induced acute pleurisy exudation and leukoplania in rats; settings: intraperitoneal 10 mg/kg, four hours after carrageenan
Method: Forty male rats of 200±20 g weight were selected and divided into five groups, namely, model control group, indomethacin group, rhein sodium group, rhein glucosamine large dose group and small dose group. Eight rats for each group. The rats were administered with medicines by intraperitoneal administration, one hour later, the rats were induced with acute pleurisy by carrageenan according to the method in the literature [Xu Shuyun, Methodology in Pharmacological Experiment (the 3rd version): 916]. Four hours later, the rats were killed and the volume of pleural effusion and total white cell count were measured.

rats [6] = assay: Intestinal adhesion in rats; settings: for Rating of adhesion degree 0: number of 12 rats with completely no adhesion; for Rating of adhesion degree 0 / Rating of adhesion degree III / Rating of adhesion degree I / Rating of adhesion degree IV / Rating of adhesion degree II: 7th day; for Rating of adhesion degree III: number of 12 rats with more than two adhering zones; for Rating of adhesion degree I: number of 12 rats with one adhering zone; for Rating of adhesion degree IV: number of 12 rats with organs adhering to abdominal wall directly; for Rating of adhesion degree II: number of 12 rats with two adhering zones
Method: Rats were fasted for 12 h and models were built according to the methods in the literature [Xu Shuyun, Methodology in Pharmacological Experiment (the 3rd version): 1335]. The rats were randomly divided into five groups, namely, model control group, dexamethasone group, rhein sodium group, rhein glucosamine large dose group and low dose group. Each group included 12 rats. […] The rats of the model group were administered with the same volume of NS, while the rats of the positive control group were administered with dexamethasone, administered once every two days, dose: 10 mg/kg. The administration volume was the same as the treatment group. The rats were killed on the 7th day and carried on laparotomy. Adhesion degree was classified and scored respectively. The classification and score of the observed index-adhesion degree can refer to the five-grade classification method prepared by Nair, and determine the classification standard, see Schedule 13. Intestinal adhesion classification adopts Ridit analysis. The test results are as follows (Table 14): […]

[7] = test system: rabbits' ear marginal veins; assay: Safety of hydro-acupuncture injection: irritation of rabbits' ear marginal vein; settings: slowly into the vein every two days, three times
Source text: In rabbits' ear marginal vein aseptic operation, rhein sodium salt, rhein arginine conjugates and 0.9% sodium chloride injection liquid were slowly filled into the veins respectively every two days for three consecutive times.

mice [8] = assay: Intestinal propulsion in mice; settings: intravenous injection
Method: Fifty mice, male, weighting from 18 to 22 g, were randomly divided into five groups, namely, model control group, domperidone group, rhein sodium group, rhein glucosamine large dose group and low dose group.
Each group has 10 mice respectively. The mice were fasted, but water was not prohibited, and then administered with medicines by intravenous injection. After that, tests were carried on immediately according to the methods in the literature[Xu Shuyun, Methodology in Pharmacological Experiment (the 3rd version): 1313]. The intestinal propulsive rates were calculated, and t test was used for the intergroup comparison.

mice [9] = assay: Capillary permeability of mice
Method: Each group has 12 mice, administration: 0.20 ml/10 g. Mice in the model control group were administrated with isovolumic physiologic saline.

Molecule: CC(=O)Oc1ccccc1C(=O)O [aspirin]
- inhibition rate (mice [1]): 48.9%
- swelling degree of auricle (mice [1]): 9.1 ± 1.8 mg
- Inhibiting rate (mice [2]): 65.6%
- Times of writhing (mice [2]): 11.1 ± 6.3 per/20 min

Molecule: COc1ccc2c(c1)c(CC(=O)O)c(C)n2C(=O)c1ccc(Cl)cc1 [indomethacin]
- net weight of granulation (rats [3]; 10 mg/kg intramuscular, two weeks): 12.21 ± 2.43 mg
- Net weight of granulation (rats [4]): 12.17 ± 2.49 mg
- Volume of exudation fluid (rats [5]): 0.26 ± 0.11
- WBC (rats [5]): 3.01 ± 1.59 ×109/L

Molecule: Rhein Arginine Conjugate
- inhibition of the formation of cotton ball granuloma compared with the model group (rats [3]; ig, large dose and low dose groups, p<0.01): significant effect on the inhibition
- abdominal adhesion ratings compared with the control group (rats [6]; large dose and low dose groups, p<0.05): statistical significances
- Rating of adhesion degree 0 (rats [6]; 6 mg/kg once a day): 1
- Rating of adhesion degree 0 (rats [6]; 12 mg/kg once a day): 3
- Rating of adhesion degree III (rats [6]; 6 mg/kg once a day): 3
- Rating of adhesion degree III (rats [6]; 12 mg/kg once a day): 2
- Rating of adhesion degree I (rats [6]; 6 mg/kg once a day): 4
- Rating of adhesion degree I (rats [6]; 12 mg/kg once a day): 5
- Rating of adhesion degree IV (rats [6]; 6 mg/kg once a day): 1
- Rating of adhesion degree IV (rats [6]; 12 mg/kg once a day): 0
- Rating of adhesion degree II (rats [6]; 6 mg/kg once a day): 3
- Rating of adhesion degree II (rats [6]; 12 mg/kg once a day): 2
- biopsy of rabbits' ear marginal vein [7]: normal without endothelial injuries, thrombosis and other pharmacological change
- irritation on rabbits' ear marginal veins ([7]; vs 0.9% sodium chloride): no irritation
- Propulsive rate (mice [8]; dosage 12 mg/kg): 53.81 ± 8.9 %
- Propulsive rate (mice [8]; dosage 24 mg/kg): 66.47 ± 9.7 %
- absorbance value (mice [9]; dosage 12 mg/kg): 0.476 ± 0.096
- absorbance value (mice [9]; dosage 24 mg/kg): 0.455 ± 0.105
